In patent US20120129763A1, “NOVEL SEMI-SYNTHETIC GLYCOPEPTIDES AS ANTIBACTERIAL AGENTS” (BIOMARIN PHARMACEUTICAL INC., priority 2007, published 2012):
Values after ≈ are worked out from the molar mass of the structure shown.

Key:
Format in all cases: cell-based
Conditions in all cases: clinical isolate, Mueller-Hinton broth
[1] = test system: Enterococcus faecium 752 (VRE); experiment: Broth microdilution MIC, EFCM 752
Experimental: (§1) Antibacterial activity in vitro is investigated by broth microdilution method in Meuller-Hinton broth as recommended by NCCLS. All strains tested are clinical isolates either sensitive or resistant to natural glycopeptides. MIC values were determined using the CLSI-recommended broth microdilution procedure (Clinical and Laboratory Standards Institute, Methods for Dilution Antimicrobial Susceptibility Tests for Bacteria That Grow Aerobically; Approved Standard-Seventh Edition). Automated liquid handlers (Multidrop 384, Labsystems, Helsinki, Finland; Biomek 2000 and Multimek 96, Beckman Coulter, Fullerton Calif.) were used to conduct serial dilutions and liquid transfers.

[2] = test system: Staphylococcus epidermidis 831 (MRSE); experiment: Broth microdilution MIC, SE 831; design: unit not given beside the values
Experimental: as §1

[3] = test system: Staphylococcus aureus 757 (MRSA); experiment: Broth microdilution MIC, SA 757
Experimental: as §1

[4] = test system: Enterococcus faecium 750 (vancomycin sensitive); experiment: Broth microdilution MIC, EFCM 750
Experimental: as §1

[5] = test system: Streptococcus pneumoniae 1195 (penicillin sensitive); experiment: Broth microdilution MIC, SPNE 1195
Experimental: as §1

[6] = test system: Staphylococcus aureus 2012 (VISA); experiment: Broth microdilution MIC, SA 2012
Experimental: as §1

[7] = test system: Enterococcus faecalis 101 (vancomycin sensitive); experiment: Broth microdilution MIC, EFC 101
Experimental: as §1

[8] = test system: Staphylococcus epidermidis 835 (MSSE); experiment: Broth microdilution MIC, SE 835; design: unit not given beside the values
Experimental: as §1

[9] = test system: Enterococcus faecalis 848 (VRE); experiment: Broth microdilution MIC, EFC 848
Experimental: as §1

[10] = test system: Streptococcus pyogenes 712 (penicillin sensitive); experiment: Broth microdilution MIC, SPYO 712
Experimental: as §1

[11] = test system: Staphylococcus aureus 100 (MSSA); experiment: Broth microdilution MIC, SA 100
Experimental: as §1

Row | MIC, E FCM 752 [1] | MIC, SE 831 [2] | MIC, SA 757 [3] | MIC, E FCM 750 [4] | MIC, S PNE 1195 [5] | MIC, SA 2012 [6] | MIC, E FC 101 [7] | MIC, SE 835 [8] | MIC, E FC 848 [9] | MIC, S PYO 712 [10] | MIC, SA 100 [11] | Compound
1 | 2 µg/mL (≈ 1.25 µM) | 0.5 | 1 µg/mL (≈ 0.627 µM) | 0.5 µg/mL (≈ 0.314 µM) | 0.12 µg/mL (≈ 0.0753 µM) | 1 µg/mL (≈ 0.627 µM) | 1 µg/mL (≈ 0.627 µM) | 1 | 2 µg/mL (≈ 1.25 µM) | 0.12 µg/mL (≈ 0.0753 µM) | 2 µg/mL (≈ 1.25 µM) | CCCCCCCCNC(=O)NC(=O)C[C@@H]1NC(=O)[C@H](NC(=O)[C@@H](CC(C)C)NC)[C@H](O)c2ccc(c(Cl)c2)Oc2cc3cc(c2OC2OC(CO)C(O)C(O)C2O)Oc2ccc(cc2Cl)[C@@H](O)[C@H]2NC(=O)[C@H](NC(=O)[C@@H]3NC1=O)c1ccc(O)c(c1)-c1c(O)cc(O)cc1[C@@H](C(=O)NC1C3CC4CC(C3)CC1C4)NC2=O (stereo partly drawn) [Compound 29]
2 | 2 µg/mL (≈ 1.15 µM) | 1 | 2 µg/mL (≈ 1.15 µM) | 0.5 µg/mL (≈ 0.288 µM) | 1 µg/mL (≈ 0.577 µM) | 4 µg/mL (≈ 2.31 µM) | 2 µg/mL (≈ 1.15 µM) | 2 | 2 µg/mL (≈ 1.15 µM) | 0.25 µg/mL (≈ 0.144 µM) | 4 µg/mL (≈ 2.31 µM) | CN[C@H](CC(C)C)C(=O)N[C@H]1C(=O)N[C@@H](CC(=O)NC(=O)N[C@@H](C)c2ccccc2)C(=O)N[C@H]2C(=O)N[C@@H]3C(=O)N[C@H](C(=O)N[C@H](C(=O)NC4C5CC6CC(C5)CC4C6)c4cc(O)cc(O)c4-c4cc3ccc4O)[C@H](O)c3ccc(c(Cl)c3)Oc3cc2cc(c3OC2O[C@H](COC(=O)N[C@@H](C)c3ccccc3)[C@@H](O)[C@H](O)[C@H]2O)Oc2ccc(cc2Cl)[C@H]1O (stereo partly drawn) [Compound 75]
3 | 8 µg/mL (≈ 5.04 µM) | 1 | 2 µg/mL (≈ 1.26 µM) | 0.5 µg/mL (≈ 0.315 µM) | 0.25 µg/mL (≈ 0.158 µM) | 4 µg/mL (≈ 2.52 µM) | 2 µg/mL (≈ 1.26 µM) | 1 | 8 µg/mL (≈ 5.04 µM) | 0.06 µg/mL (≈ 0.0378 µM) | 2 µg/mL (≈ 1.26 µM) | CN[C@H](CC(C)C)C(=O)N[C@H]1C(=O)N[C@@H](CC(=O)NC(=O)N[C@@H](C)c2ccccc2)C(=O)N[C@H]2C(=O)N[C@@H]3C(=O)N[C@H](C(=O)N[C@H](C(=O)NC4C5CC6CC(C5)CC4C6)c4cc(O)cc(O)c4-c4cc3ccc4O)[C@H](O)c3ccc(c(Cl)c3)Oc3cc2cc(c3OC2O[C@H](CO)[C@@H](O)[C@H](O)[C@H]2O)Oc2ccc(cc2Cl)[C@H]1O (stereo partly drawn) [Compound 76]
